Measured values taken from PMC4791286, “Puquitinib mesylate, an inhibitor of phosphatidylinositol 3-kinase p110δ, for treating relapsed or refractory non-Hodgkin's lymphoma” (Oncotarget, 2015).
“And” between values parts separate entries of the source, which are not always exact repeats. Equal values may be shown once. Where a name gives a salt, the structure may show the parent alone. Read-outs that look alike come from different tables or passages of the source.

Key:
CYP1A2 enzyme = conditions: preliminary study; cited from earlier work
[1] = parameters: method as in earlier work; conditions: toxicology experiments; ref unpublished information, personal communication with Wei Mao on January 1, 2013; cited from earlier work
[2] = system: relapsed or refractory non-Hodgkin's lymphoma; experiment: Phase I study, antitumor activity (response, PFS); type: in vivo, human
Method: This was a phase I open label, dose-escalation study whose primary objective was to characterize the safety of XC-302 in adult Chinese patients with advanced lymphoma administered on a 28-day cycle. Others were to determine the pharmacokinetics (PK) characteristics and anti-tumor activity. The anti-tumor effects of XC-302 were evaluated every 2 cycles with the Standardized Response Criteria of the National Cancer Institute International Working Group (IWG). Efficacy evaluation for CLL was on account of IWCLL criteria while for NHL, it was analyzed by IWG response criteria. Patients with stable disease or partial remission were allowed to continue therapy until progressive disease or toxicity was observed.

advanced solid tumors [3] = conditions: ref unpublished information, personal communication with Wei Mao on January 1, 2013, cited from earlier work; for Maximum tolerated dose (MTD): single agent, postprandial
[4] = parameters: method as in earlier work; conditions: pre-clinical; ref unpublished information, personal communication with Wei Mao on January 1, 2013; cited from earlier work
[5] = system: vascular endothelial cells lumen; parameters: method as in earlier work; conditions: ref unpublished information, personal communication with Wei Mao on January 1, 2013; read-out: IC50, formation of the vascular endothelial cells lumen; cited from earlier work
PI3K p110γ = system: PI3K p110γ; parameters: method as in earlier work; conditions: ref unpublished information, personal communication with Wei Mao on January 1, 2013; read-out: IC50 against PI3K isoform p110γ; cited from earlier work
[6] = system: xenografts with cancer of the colon, stomach, or lung; parameters: method as in earlier work; conditions: nude mice, ref unpublished information, personal communication with Wei Mao on January 1, 2013; cited from earlier work
KDR = system: KDR; parameters: method as in earlier work; conditions: ref unpublished information, personal communication with Wei Mao on January 1, 2013; read-out: IC50, receptor tyrosine kinase KDR; cited from earlier work
[7] = system: cell lines with drug resistance mediated by p170/MDR-1 / p-Glycoprotein; parameters: method as in earlier work; conditions: p170/MDR-1 / p-Glycoprotein mediated resistance; ref unpublished information, personal communication with Wei Mao on January 1, 2013; cited from earlier work
[8] = Phase I study, pharmacokinetics of XC-302 in patients; type: in vivo, human
Method: Detailed pharmacokinetic were analyzed by taking blood samples before (within 1 hour) and after (every 2 hours) dosing on days 1, 28 of cycle 1. Plasma concentrations of XC-302 were measured with a validated liquid chromatography assay. Pharmacokinetic measures, such as the maximum plasma concentration (Cmax) and area under the time-concentration curve (AUC), were estimated in every patient.

PDGFR β = system: PDGFR β; parameters: method as in earlier work; conditions: ref unpublished information, personal communication with Wei Mao on January 1, 2013; read-out: IC50, receptor tyrosine kinase PDGFR β; cited from earlier work
PI3K p110α = conditions: read-out: IC50 against PI3K isoform p110α; ref unpublished information, personal communication with Wei Mao on January 1, 2013; cited from earlier work
[9] = system: AKT phosphorylation mediated by EGFR; parameters: method as in earlier work; conditions: ref unpublished information, personal communication with Wei Mao on January 1, 2013; cited from earlier work
PI3K p110δ = conditions: read-out: IC50 against PI3K isoform p110δ; ref unpublished information, personal communication with Wei Mao on January 1, 2013; cited from earlier work
PI3K p110β = conditions: read-out: IC50 against PI3K isoform p110β; ref unpublished information, personal communication with Wei Mao on January 1, 2013; cited from earlier work
p110δ = system: p110δ; parameters: method as in PMID 20959606; conditions: cited from earlier work
MCL = system: MCL; parameters: method as in PMID 24615778; conditions: n = 40; cited from earlier work
[10] = system: indolent non-Hodgkin lymphoma (iNHL); parameters: method as in PMID 24615776; conditions: cited from earlier work
advanced solid tumors [11] = conditions: human, in vivo; cited from earlier work
[12] = system: advanced solid tumors and lymphoma; parameters: method as in PMID 22357447; conditions: cited from earlier work

c1cnc2ccc(Nc3nc(NC4CC4)c4nc[nH]c4n3)cc2c1 [XC-302, Puquitinib Mesylate]
Inhibition of CYP1A2 enzyme activity (CYP1A2 enzyme): irreversibly inhibited
Toxicity [1]: low toxicity
Complete response ([2]; 25 mg BID, n = 3): 0 n
Minor response ([2]; 25 mg BID, n = 3): 0 n
Partial response ([2]; 25 mg BID, n = 3): 0 n
Progressive disease ([2]; 25 mg BID, n = 3): 0 n
Stable disease ([2]; 25 mg BID, n = 3): 3 n
Complete response ([2]; 37.5 mg BID, n = 9): 0 n
Minor response ([2]; 37.5 mg BID, n = 9): 0 n
Partial response ([2]; 37.5 mg BID, n = 9): 0 n
Progressive disease ([2]; 37.5 mg BID, n = 9): 8 n
Stable disease ([2]; 37.5 mg BID, n = 9): 1 n
Complete response ([2]; 50 mg BID (n = 7)): 0 n
Minor response ([2]; 50 mg BID (n = 7)): 1 n
Overall response rate ([2]; 50 mg BID (n = 7)): 2 n
Partial response ([2]; 50 mg BID (n = 7)): 1 n
Progressive disease ([2]; 50 mg BID (n = 7)): 3 n
Stable disease ([2]; 50 mg BID (n = 7)): 2 n
Complete response ([2]; All (n = 21; 19 evaluable)): 0 n
Minor response ([2]; All (n = 21; 19 evaluable)): 1 n
Overall response rate ([2]; All (n = 21; 19 evaluable)): 2 n
Partial response ([2]; All (n = 21; 19 evaluable)): 1 n
Progressive disease ([2]; All (n = 21; 19 evaluable)): 11 n
Stable disease ([2]; All (n = 21; 19 evaluable)): 6 n
Progression free survival (PFS), median (95% CI) ([2]; all evaluable patients): 1.9 (95% CI, 1.7 to 2.0) months and 1.9 months
Duration of response, median (range) ([2]; printed as for all 19 patients): 7.1 (6.9 to 7.3) months
Time to response ([2]; the two responding patients, individual values): 1.8 months and 1.84 months
Disease control rate (advanced solid tumors [3]; advanced solid tumors): 52.5%
Oral bioavailability (advanced solid tumors [3]; clinical PK monitoring): good oral bioavailability
Maximum tolerated dose (MTD) (advanced solid tumors [3]; continuous daily schedule): 75 mg
Maximum tolerated dose (MTD) (advanced solid tumors [3]; twice daily (BID)): 50 mg
Absolute bioavailability [4]: high absolute bioavailability
Absorption [4]: rapidly absorbed
IC50 [5]: 100 nM
IC50 (PI3K p110γ): 89.7 nM
Anti-tumor efficacy in xenografts [6]: obvious anti-tumor efficacy
IC50 (KDR): 1000 nM
ALT, increased, adverse event, any grade (25 mg BID, n = 3): 2 n
Anemia, adverse event, any grade (25 mg BID, n = 3): 1 n
Creatinine, increased, adverse event, any grade (25 mg BID, n = 3): 1 n
Fecal occult blood, adverse event, any grade (25 mg BID, n = 3): 1 n
Hematuresis, adverse event, any grade (25 mg BID, n = 3): 1 n
Leukopenia, adverse event, any grade (25 mg BID, n = 3): 1 n
Thrombocytopenia, adverse event, any grade (25 mg BID, n = 3): 1 n
ALT, increased, adverse event, any grade (37.5 mg BID, n = 9): 5 n
AST, increased, adverse event, any grade (37.5 mg BID, n = 9): 1 n
Anemia, adverse event, any grade (37.5 mg BID, n = 9): 4 n
Anemia, adverse event, grade ≥3 (37.5 mg BID, n = 9): 1 n
Constipation, adverse event, any grade (37.5 mg BID, n = 9): 1 n
Fecal occult blood, adverse event, any grade (37.5 mg BID, n = 9): 2 n
Hematuresis, adverse event, any grade (37.5 mg BID, n = 9): 1 n
Leukopenia, adverse event, any grade (37.5 mg BID, n = 9): 1 n
Nausea, adverse event, any grade (37.5 mg BID, n = 9): 1 n
Neutropenia, adverse event, any grade (37.5 mg BID, n = 9): 2 n
Proteinuria, adverse event, any grade (37.5 mg BID, n = 9): 1 n
Pyrexia, adverse event, any grade (37.5 mg BID, n = 9): 2 n
S-T-segment change, adverse event, any grade (37.5 mg BID, n = 9): 1 n
Thrombocytopenia, adverse event, any grade (37.5 mg BID, n = 9): 2 n
Thrombocytopenia, adverse event, grade ≥3 (37.5 mg BID, n = 9): 1 n
URI, adverse event, any grade (37.5 mg BID, n = 9): 2 n
Patients with dose-limiting toxicity (grade 3 transaminases elevation) (50 mg BID group): Four
ALT, increased, adverse event, any grade (50 mg BID, n = 9): 7 n
ALT, increased, adverse event, grade ≥3 (50 mg BID, n = 9): 4 n
AST, increased, adverse event, any grade (50 mg BID, n = 9): 6 n
AST, increased, adverse event, grade ≥3 (50 mg BID, n = 9): 1 n
Anemia, adverse event, any grade (50 mg BID, n = 9): 2 n
Arrhythmia, adverse event, any grade (50 mg BID, n = 9): 1 n
Constipation, adverse event, any grade (50 mg BID, n = 9): 1 n
Creatinine, increased, adverse event, any grade (50 mg BID, n = 9): 1 n
Diarrhea, adverse event, any grade (50 mg BID, n = 9): 2 n
Fecal occult blood, adverse event, any grade (50 mg BID, n = 9): 1 n
Hematuresis, adverse event, any grade (50 mg BID, n = 9): 1 n
Leukopenia, adverse event, any grade (50 mg BID, n = 9): 2 n
Nausea, adverse event, any grade (50 mg BID, n = 9): 1 n
Neutropenia, adverse event, any grade (50 mg BID, n = 9): 3 n
Neutropenia, adverse event, grade ≥3 (50 mg BID, n = 9): 2 n
Peripheral nerve toxicity, adverse event, any grade (50 mg BID, n = 9): 1 n
Pyrexia, adverse event, any grade (50 mg BID, n = 9): 2 n
Rash, adverse event, any grade (50 mg BID, n = 9): 2 n
S-T-segment change, adverse event, any grade (50 mg BID, n = 9): 1 n
Thrombocytopenia, adverse event, any grade (50 mg BID, n = 9): 1 n
Thrombocytopenia, adverse event, grade ≥3 (50 mg BID, n = 9): 1 n
URI, adverse event, any grade (50 mg BID, n = 9): 2 n
DLT events (25-mg or 37.5-mg doses): No DLT events
ALT, increased, adverse event, any grade (Overall): 14 n
ALT, increased, adverse event, grade ≥3 (Overall): 4 n
AST, increased, adverse event, any grade (Overall): 7 n
AST, increased, adverse event, grade ≥3 (Overall): 1 n
Anemia, adverse event, any grade (Overall): 7 n
Arrhythmia, adverse event, any grade (Overall): 1 n
Constipation, adverse event, any grade (Overall): 2 n
Creatinine, increased, adverse event, any grade (Overall): 2 n
Diarrhea, adverse event, any grade (Overall): 2 n
Fecal occult blood, adverse event, any grade (Overall): 4 n
Hematuresis, adverse event, any grade (Overall): 3 n
Leukopenia, adverse event, any grade (Overall): 4 n
Nausea, adverse event, any grade (Overall): 2 n
Neutropenia, adverse event, any grade (Overall): 5 n
Neutropenia, adverse event, grade ≥3 (Overall): 2 n
Peripheral nerve toxicity, adverse event, any grade (Overall): 1 n
Proteinuria, adverse event, any grade (Overall): 1 n
Pyrexia, adverse event, any grade (Overall): 4 n
Rash, adverse event, any grade (Overall): 2 n
S-T-segment change, adverse event, any grade (Overall): 2 n
Thrombocytopenia, adverse event, any grade (Overall): 4 n
Thrombocytopenia, adverse event, grade ≥3 (Overall): 2 n
URI, adverse event, any grade (Overall): 4 n
Anemia, frequency of AE (all 21 patients): 33.3%
Creatinine elevation, frequency of AE (all 21 patients): 9.5%
Elevated alanine transaminase (ALT), frequency of AE (all 21 patients): 66.7%
Elevated aspartate transaminase (AST), frequency of AE (all 21 patients): 33.3%
Fecal occult blood, frequency of AE (all 21 patients): 19.0%
Hematuresis, frequency of AE (all 21 patients): 14.3%
Myocardial ischemia, frequency of AE (all 21 patients): 9.5%
Neutropenia, frequency of AE (all 21 patients): 23.8%
Rash, frequency of AE (all 21 patients): 9.5%
Thrombocytopenia, frequency of AE (all 21 patients): 19.0%
Upper respiratory infection (URI), frequency of AE (all 21 patients): 19.0%
Drug-related hyperglycemia (all patients): no XC302-related hyperglycemia
Maximum tolerated dose (MTD) (twice a day, 28-day cycle, NHL patients): 50 mg
Sensitivity of drug-resistant cell lines [7]: similarly sensitive
Pharmacokinetic response (AUClast and Cmax vs dose) ([8]; 25 mg to 50 mg, days 1 and 28): linear
Tmax ([8]; human, serum, oral, 25 to 50 mg BID, patients, read-out: Time of peak serum concentration after administration): ~4 h
IC50 (PDGFR β): 1000 nM
IC50 (PI3K p110α): 767 nM
IC50 [9]: 100 nM
IC50 (PI3K p110δ): 2.8 nM
IC50 (PI3K p110β): 699 nM

CC[C@H](Nc1ncnc2[nH]cnc12)c1nc2cccc(F)c2c(=O)n1-c1ccccc1 [Idelalisib]
Asymptomatic grade 3 or greater serum transaminase elevations (MCL): 35%
Asymptomatic grade 3 or greater serum transaminase elevations ([10]; iNHL, n = 64): 25%
Response rate ([10]; marginal-zone lymphoma subtype): 33%

C=CCN(/C=C1/C(=O)O[C@H](COC)[C@@]2(C)C1=C(O)C(=O)C1=C2[C@H](OC(C)=O)C[C@]2(C)C(=O)CC[C@@H]12)CC=C [PX866]
Grade 3 AST abnormalities (advanced solid tumors [11]): 2 of 84 patients

COc1ccc(-c2ccc3ncc4c(c3c2)n(-c2ccc(N3CCNCC3)c(C(F)(F)F)c2)c(=O)n4C)cn1 [BGT226]
AST elevations, Grade 2 [12]: 9 n
AST elevations, Grade 3 [12]: 3 n
